Measured values as given in patent publication US20210046190A1, “ANTICANCER AGENT” (OSAKA UNIVERSITY, priority 2018, published 2021).
Values after ≈ are worked out from the molar mass of the structure shown.

Tests used:
HepG2 cells [1] = assay: Intracellular reactive oxygen species (ROS) levels, CellROX flow cytometry; assay type: cell-based; conditions: 100 μg/ml, 6 hours
Method: CellROX Deep Red Reagent was purchased from Invitrogen (Carlsbad, Calif.), and intracellular ROS levels were measured. […] The treated cells were cultured at 37° C. for 6 hours, and the cell concentration of the sample was adjusted to 5×10^3 cells/ml. Then, the cells were cultured with a CellROX Deep Red Reagent (1 mM, Invitrogen) at 37° C. for 30 minutes while protected from light. Furthermore, the cells were stained with SYTOX Blue Dead Cell Stain (5 mM, Invitrogen), and counted by flow cytometry after dead cell exclusion. Flow cytometric analysis was performed using a Canto II flow cytometer (BD Biosciences).

HepG2 cells [2] = assay: Apoptosis assay, Annexin V-FITC/PI flow cytometry; assay type: cell-based; conditions: 100 μg/ml
Method: The cell apoptosis assay was performed by flow cytometry using an Annexin V-FITC Apoptosis Detection Kit (BioVision, Mountain View, Calif.) according to the manufacturer's protocol. For flow cytometric analysis, HepG2 cells (5×10^5 cells) were trypsinized, gently washed twice with PBS, and subsequently resuspended in 500 μL of 1× binding buffer. The cells were stained by adding 5 μL of Annexin V-FITC and propidium iodide (PI) in the dark at room temperature for 5 minutes. The green fluorescence of FITC-bound Annexin V and the red fluorescence of DNA-bound PI were measured using a Canto II flow cytometer (BD Biosciences).

HuH7 = HuH7 hepatocellular carcinoma cell line; cited from earlier work
PLC = PLC hepatocellular carcinoma cell line; cited from earlier work
[3] = 30 mg once a day in oral administration, acute leukemia; cited from earlier work

For `CC(C)C[C@H](NC(=O)[C@@H](O)[C@H](N)Cc1ccccc1)C(=O)O` [ubenimex, (2S)-2-[(2S,3R)-3-amino-2-hydroxy-4-phenylbutanoylamino]-4-methylpentanoic acid], the “intracellular ROS levels” value (HepG2 cells [1]) is listed as “has an effect of enhancing intracellular ROS levels”, the apoptosis (HepG2 cells [2]) is listed as “has an effect of inducing apoptosis” and the IC30 (HuH7) is listed as 394.8 µg/mL (≈ 1280 µM). For the same molecule, the IC30 (PLC) was 498.8 µg/mL (≈ 1620 µM) and the maximum blood concentration [3] was 2.21 µg/mL.
